Test results taken from patent US12233053B2, “Adenosine A3 receptor antagonists for treating aging skin and wounds” (ORADIN PHARMACEUTICAL LTD., priority 2021, dated 2025).

How the values were obtained:
HaCaT keratinocyte cells [1] = assay: Scratch assay (gap size, cell migration), keratinocytes; assay type: cell-based, human; conditions: 24 hours
Procedure: (§1) Keratinocyte HaCaT cells or 3T3 fibroblast cells (10^6 cells) were grown in 35 mm petri dishes in DMEM containing 10% FCS overnight. Thereafter, the cell cultures were scratched using 20 μl pipet tip in the middle of the culture plate, the cells were washed three times, and then MRS-1523 (at concentrations of 10 nM to 10 μM in DMEM containing 10% FCS) was added to each scratched plate and incubated with the cells for 24 hours. The gap size in plates of MRS-1523 treated cells was compared to the gap size in plates of control cells which were scratched and incubated for 24 hours in DMEM containing 10% FCS in the absence of MRS-1523. The results are presented as mean±SD. Statistical significance was determined by Student T-test.

3T3 fibroblast cells [2] = assay: Scratch assay (gap size, cell migration), fibroblasts; assay type: cell-based; conditions: 24 hours
Procedure: as §1

B16-F1 melanocytes [3] = assay: Scratch assay (gap size, cell migration), melanocytes; assay type: cell-based; conditions: 10 μM, 24 hours, B16-F1, FIG. 4E
Procedure: FIGS. 4A-E show bar graphs of the gap size in a scratch assay of different cell types in culture. FIGS. 4A-B show bar graphs of the gap size of HaCaT keratinocyte cells (A) and 3T3 fibroblast cells (B) 24 hours after treatment with increasing concentrations of MRS-1523 in the scratch assay. FIGS. 4C-E show bar graphs of the gap size of HaCAT cells (FIG. 4C), 3T3 fibroblasts (FIG. 4D), and B16-F1 melanocytes (FIG. 4E) after 24-hour treatment with 10 μM MRS-1523 in the scratch assay. *p<0.05, **p<0.01 by Student T-test.
as §1

skin explants = assay: Fibroblast and collagen staining of skin explants (H&E, Fontana-Masson); design: species or system human; conditions: 10 μM, 12 days
Procedure: Skin explants were treated with MRS-1523 (10 μM) for 12 days. Thereafter, the skin explants were stained with hematoxylin and eosin (H&E; FIGS. 5A and 5C) or with Fontana-Masson (FIGS. 5B and 5D).

3T3 fibroblast cells [4] = assay: Collagen-1 and F-actin expression in fibroblasts (confocal fluorescence); assay type: cell-based; conditions: 10 μM, 24 hours
Procedure: The effect of MRS-1523 on collagen level in fibroblasts in culture was next examined. 3T3-fibroblast cells were grown in DMEM containing 10% FCS for 24 hours, and then were treated with 10 μM MRS-1523 for additional 24 hours. Thereafter, the presence of collagen or F-actin was evaluated as follows: the cells were incubated with rabbit anti-collagen-1 antibodies, and then with Alexa Fluor® 488-conjugated goat anti-rabbit antibodies to detect collagen-1 (green staining). Detection of F-actin was performed by F-actin-Phalloidin-staining (red staining). Cell nuclei were stained with 4′,6-diamidino-2-phenylindole (DAPI; blue staining).

HaCaT cells = assay: Differentiation markers PAR-2 and Filaggrin in keratinocytes (immunostaining); assay type: cell-based, human; conditions: 10 μM, 24 hours
Procedure: HaCaT cells were grown in DMEM containing 10% FCS for 24 hours. The cells were then treated with 10 μM MRS-1523 for 24 hours, washed with PBS, and fixed with 4% paraformaldehyde for 1 hour. Fixed cells were washed and incubated with the following primary antibodies (Sigma): anti-PAR-2 (Clone SAM11 produced in mouse, reactive to mouse and human) followed by secondary antibodies, anti-mouse antibodies conjugated to FITC, or anti-Filaggrin (FLG; produced in rabbit) followed by secondary antibodies, anti-rabbit antibodies conjugated to Alexa Fluor® 488.

HaCaT keratinocyte cells [5] = conditions: 10 μM or lower concentrations, 24 hours
Procedure: (§2) Cell viability was then measured using Alamar blue (AB) assay according to the manufacturer's instructions. Briefly, the cells were rinsed with PBS, and 0.2 ml of an AB solution (10% (v/v) of AB dye in DMEM) were added to each well. After incubation of 3 hours, AB fluorescence was quantified at the excitation and emission wavelengths of 540 and 595 nm, respectively, using a Tecan Genios microplate reader. The results are given as mean±SD. Statistical significance was determined by Student T-Test.

3T3 fibroblast cells [6] = system: 3T3 fibroblast cells
Procedure: as §2

B16-F1 melanocytes [7] = system: B16-F1 melanocytes
Procedure: HaCaT cells or 3T3 cells (2×10^4) were incubated in 96-well Elisa plates in DMEM containing 10% fetal calf serum (FCS) in the presence of increasing concentrations of MRS-1523 for 24 hours. Cell viability was then measured using Alamar blue (AB) assay according to the manufacturer's instructions. Briefly, the cells were rinsed with PBS, and 0.2 ml of an AB solution (10% (v/v) of AB dye in DMEM) were added to each well. After incubation of 3 hours, AB fluorescence was quantified at the excitation and emission wavelengths of 540 and 595 nm, respectively, using a Tecan Genios microplate reader. The results are given as mean±SD. Statistical significance was determined by Student T-Test.

## CCCOC(=O)c1c(-c2ccccc2)nc(CC)c(C(=O)SCC)c1CCC [MRS-1523, 3-propyl-6-ethyl-5[(ethylthio)carbonyl]-2-phenyl-4-propyl-3-pyridine carboxylate]
HaCaT keratinocyte cells [1]; 0.01 μM-10 μM, FIG. 4A
  gap size vs control cells (cell migration): significant reduction in the gap size
HaCaT keratinocyte cells [1]; 10 μM, FIG. 4C
  cell migration: significantly stimulated
3T3 fibroblast cells [2]; 0.01 μM-10 μM, 3T3, FIG. 4B
  gap size vs control cells (cell migration): significant reduction in the gap size
3T3 fibroblast cells [2]; 10 μM, 3T3, FIG. 4D
  cell migration: significantly stimulated
B16-F1 melanocytes [3]
  melanocytes migration: attenuated
Skin explants
  collagen levels in the dermis vs untreated skin explants: increase
  fibroblast levels in the dermis vs untreated skin explants: increase
3T3 fibroblast cells [4]
  expression of F-actin vs control cells: not increased
  expression of collagen-1 vs control untreated fibroblasts: increased expression
HaCaT cells
  expression of Filaggrin (FLG) vs control untreated cells: decrease
  expression of PAR-2 vs control untreated cells: decrease
HaCaT keratinocyte cells [5]
  stimulation of keratinocyte proliferation: 8-16%
3T3 fibroblast cells [6]
  toxic effect on fibroblasts: did not induce any toxic effect
3T3 fibroblast cells [6]; 10 μM, 24 hours, 3T3
  fibroblast proliferation: slight but significant increase
B16-F1 melanocytes [7]
  toxic effect on melanocyte cells: did not induce any toxic effect
B16-F1 melanocytes [7]; 24 hours, B16-F1
  melanocyte proliferation: promoted their proliferation
